Experimental data as given in patent US20130289070A1, “Use of Levocabastine for Modulating Generation of Pro-Inflammatory Cytokines” (Bausch & Lomb Incorporated, priority 2007, published 2013).

Tested on: EoL-1 (human eosinophilic leukaemia cell line) cells
Test: TNF-α-induced cytokine release, non-differentiated EoL-1 cells (NO PMA) (Luminex)
Format: cell-based
Design: key to Fractalkine (NO PMA), p of decrement / IL-1α (NO PMA), p of decrement / IL-1β (NO PMA), p of decrement / IL-1ra (NO PMA), p of decrement / IL-5 (NO PMA), p of decrement / IL-7 (NO PMA), p of decrement / IL-8 (NO PMA), p of decrement / IP-10 (NO PMA), p of decrement / MCP-1 (NO PMA), p of decrement / MIP-1β (NO PMA), p of decrement / VEGF (NO PMA), p of decrement: ns = non significant
Experimental: EoL-1 (human eosinophilic leukaemia cell line) cells (Saito et al., 1985; Mayumi, 1992) were maintained in RPMI-1640 medium with L-glutamine supplemented with 10% (v/v) FBS at 37° C. in a humidified atmosphere with 5% CO2. Where indicated, 24 h before the experiment 25 ng/mL PMA ((phorbol 12-myristate 13-acetate, purchased from Sigma Aldrich) was added to the medium to induce eosinophil granulation and differentiation (Ohtsu et al., 1993; Zimmermann et al., 2000).
Half-million cells were aliquoted per point in a 24 well plate; each experiment was performed in triplicate and carried out in parallel with eosinophils differentiated and non differentiated with PMA (25 ng/mL, 24 h). Cells were suspended in low serum medium (RPMI-1640, 0.1% (v/v) FBS). TNF-α was used to induce cytokine secretion as previously described by Steube et al. (2000), and the net release was obtained by comparison to the basal (non-TNF-α treated). In the first experiment we evaluated the concentration and time relation between TNF-α stimulation and cytokine release. Therefore, 5, 10, and 25 ng/mL of TNF-α was administered to the cells at 0, ½, 1, 2, 3, 6, 12 and 24 h (data not shown). An aliquot of 150 μL of supernate was collected for cytokines' analysis. […] Differentiated and non-differentiated EoL-1 cells were exposed from 0.1 to 2.3 mM levocabastine ([…]Levocabastine 0.05% solution eye drops containing cyclodextrins, without benzalkonium chloride), and aliquots of the supernates were collected after 12 and 24 h. The content of cytokines at time zero was estimated by treating the cells with 400 nM calcimycin (A-23187), which is a cytolytic agent that frees all the mediators from the cytoplasmic compartment. In addition, for each experiment we tested the effect of the vehicle, which was added to the wells in a concentration equal to the maximum amount used for drug dilution.
Samples (supernates 12 and 24 h) in triplicate were analyzed using Luminex 200™ (Luminex, Austin, Tex.) and Beadview software v1.0 (Upstate Cell Signaling Solutions, Temecula, Calif.).
All data are presented as mean±SEM for the indicated number of experiments. Statistical significance was determined by Newman-Keuls test after ANOVA using GraphPad Prism (version 3.0; GraphPad Software Inc., San Diego, Calif., USA). P-values<0.05 were considered to be significant.

[1] = 12 h, TNF-α 5 ng + Levocabastine 2 mM vs TNF-α
[2] = 12 h, TNF-α 10 ng + Levocabastine 2 mM vs TNF-α
[3] = 12 h, TNF-α 20 ng + Levocabastine 2 mM vs TNF-α
[4] = 12 h, TNF-α 5, 10, 20 ng + Levocabastine 2 mM vs TNF-α
[5] = 24 h, FN + Levocabastine 2 mM vs FN
[6] = 24 h, Levocabastine 2 mM vs TNF-α

C[C@@H]1CN([C@H]2CC[C@](C#N)(c3ccc(F)cc3)CC2)CC[C@]1(C(=O)O)c1ccccc1 [Levocabastine, levocabastine]
< 0.001: RANTES (NO PMA), p of increase (12 h, TNF-α vs Lev 0.1-2.3 mM)
effective in reducing the release: release of IL-1-ra induced by TNF-α (2 mM, TNF-α 10 ng, 24 h, not exposed to PMA, not influenced by VCAM-1 or fibronectin (FIG. 11)) | release of IL-6 induced by TNF-α (2 mM, TNF-α 10 ng, 24 h, not exposed to PMA, not influenced by VCAM-1 or fibronectin (FIG. 12)) | release of IL-8 induced by TNF-α (2 mM, TNF-α 10 ng, 24 h, not exposed to PMA, not influenced by VCAM-1 or fibronectin (FIG. 13))
cytokine secretion p < 0.01: MIP-1α (NO PMA), p of increase (12 h, TNF-α vs Lev 0.1-2.3 mM)
Increase: MCP-1 (NO PMA), p of decrement [5] | MIP-1α (NO PMA), p of decrement [5] | RANTES (NO PMA), p of decrement [5]
P < 0.001: IL-12p40 (NO PMA), p of decrement [1] | IL-12p40 (NO PMA), p of decrement [2] | IL-12p40 (NO PMA), p of decrement [3] | IL-1ra (NO PMA), p of decrement [5] | IL-6 (NO PMA), p of decrement [5] | IL-8 (NO PMA), p of decrement [5] | VEGF (NO PMA), p of decrement [5] | IL-1ra (NO PMA), p of decrement [6] | IL-6 (NO PMA), p of decrement [6]
P < 0.05: VEGF (NO PMA), p of decrement [3] | IL-12p40 (NO PMA), p of decrement [5]
P < 0.01: VEGF (NO PMA), p of decrement [1] | VEGF (NO PMA), p of decrement [2]
increase of cytokine secretion: Fractalkine (NO PMA), p of decrement [4] | G-CSF (NO PMA), p of decrement [4] | IL-1ra (NO PMA), p of decrement [4] | IL-1α (NO PMA), p of decrement [4] | IP-10 (NO PMA), p of decrement [4] | MIP-1α (NO PMA), p of decrement [4] | MIP-1β (NO PMA), p of decrement [4] | RANTES (NO PMA), p of decrement [4] | RANTES (NO PMA), change of secretion (12 h, TNF-α vs Lev 0.1-2.3 mM)
capable of reducing the release: release of IL-12-P40 induced by TNF-α (2 mM, TNF-α 5, 10 and 20 ng, 24 h, without PMA (FIG. 7))
ns: GM-CSF (NO PMA), p of decrement [1] | IL-1β (NO PMA), p of decrement [1] | IL-5 (NO PMA), p of decrement [1] | IL-6 (NO PMA), p of decrement [1] | IL-7 (NO PMA), p of decrement [1] | IL-8 (NO PMA), p of decrement [1] | IL-10 (NO PMA), p of decrement [1] | MCP-1 (NO PMA), p of decrement [1] | TGF-α (NO PMA), p of decrement [1] | GM-CSF (NO PMA), p of decrement [2] | IL-1β (NO PMA), p of decrement [2] | IL-5 (NO PMA), p of decrement [2] | IL-6 (NO PMA), p of decrement [2] | IL-7 (NO PMA), p of decrement [2] | IL-8 (NO PMA), p of decrement [2] | IL-10 (NO PMA), p of decrement [2] | MCP-1 (NO PMA), p of decrement [2] | TGF-α (NO PMA), p of decrement [2] | GM-CSF (NO PMA), p of decrement [3] | IL-1β (NO PMA), p of decrement [3] | IL-5 (NO PMA), p of decrement [3] | IL-6 (NO PMA), p of decrement [3] | IL-7 (NO PMA), p of decrement [3] | IL-8 (NO PMA), p of decrement [3] | IL-10 (NO PMA), p of decrement [3] | MCP-1 (NO PMA), p of decrement [3] | TGF-α (NO PMA), p of decrement [3] | Fractalkine (NO PMA), p of decrement (12 h, TNF-α vs Lev 0.1 mM) | IL-1ra (NO PMA), p of decrement (12 h, TNF-α vs Lev 0.1 mM) | IL-1α (NO PMA), p of decrement (12 h, TNF-α vs Lev 0.1 mM) | IL-1β (NO PMA), p of decrement (12 h, TNF-α vs Lev 0.1 mM) | IL-5 (NO PMA), p of decrement (12 h, TNF-α vs Lev 0.1 mM) | IL-7 (NO PMA), p of decrement (12 h, TNF-α vs Lev 0.1 mM) | IL-8 (NO PMA), p of decrement (12 h, TNF-α vs Lev 0.1 mM) | IP-10 (NO PMA), p of decrement (12 h, TNF-α vs Lev 0.1 mM) | MCP-1 (NO PMA), p of decrement (12 h, TNF-α vs Lev 0.1 mM) | MIP-1β (NO PMA), p of decrement (12 h, TNF-α vs Lev 0.1 mM) | VEGF (NO PMA), p of decrement (12 h, TNF-α vs Lev 0.1 mM) | Fractalkine (NO PMA), p of decrement (12 h, TNF-α vs Lev 0.5 mM) | IL-1ra (NO PMA), p of decrement (12 h, TNF-α vs Lev 0.5 mM) | IL-1α (NO PMA), p of decrement (12 h, TNF-α vs Lev 0.5 mM) | IL-1β (NO PMA), p of decrement (12 h, TNF-α vs Lev 0.5 mM) | IL-5 (NO PMA), p of decrement (12 h, TNF-α vs Lev 0.5 mM) | IL-7 (NO PMA), p of decrement (12 h, TNF-α vs Lev 0.5 mM) | IL-8 (NO PMA), p of decrement (12 h, TNF-α vs Lev 0.5 mM) | IP-10 (NO PMA), p of decrement (12 h, TNF-α vs Lev 0.5 mM) | MCP-1 (NO PMA), p of decrement (12 h, TNF-α vs Lev 0.5 mM) | MIP-1β (NO PMA), p of decrement (12 h, TNF-α vs Lev 0.5 mM) | VEGF (NO PMA), p of decrement (12 h, TNF-α vs Lev 0.5 mM) | Fractalkine (NO PMA), p of decrement (12 h, TNF-α vs Lev 1.0 mM) | IL-1ra (NO PMA), p of decrement (12 h, TNF-α vs Lev 1.0 mM) | IL-1α (NO PMA), p of decrement (12 h, TNF-α vs Lev 1.0 mM) | IL-1β (NO PMA), p of decrement (12 h, TNF-α vs Lev 1.0 mM) | IL-5 (NO PMA), p of decrement (12 h, TNF-α vs Lev 1.0 mM) | IL-7 (NO PMA), p of decrement (12 h, TNF-α vs Lev 1.0 mM) | IL-8 (NO PMA), p of decrement (12 h, TNF-α vs Lev 1.0 mM) | IP-10 (NO PMA), p of decrement (12 h, TNF-α vs Lev 1.0 mM) | MCP-1 (NO PMA), p of decrement (12 h, TNF-α vs Lev 1.0 mM) | MIP-1β (NO PMA), p of decrement (12 h, TNF-α vs Lev 1.0 mM) | VEGF (NO PMA), p of decrement (12 h, TNF-α vs Lev 1.0 mM) | Fractalkine (NO PMA), p of decrement (12 h, TNF-α vs Lev 2.3 mM) | IL-1ra (NO PMA), p of decrement (12 h, TNF-α vs Lev 2.3 mM) | IL-1α (NO PMA), p of decrement (12 h, TNF-α vs Lev 2.3 mM) | IL-1β (NO PMA), p of decrement (12 h, TNF-α vs Lev 2.3 mM) | IL-5 (NO PMA), p of decrement (12 h, TNF-α vs Lev 2.3 mM) | IL-7 (NO PMA), p of decrement (12 h, TNF-α vs Lev 2.3 mM) | IL-8 (NO PMA), p of decrement (12 h, TNF-α vs Lev 2.3 mM) | IP-10 (NO PMA), p of decrement (12 h, TNF-α vs Lev 2.3 mM) | MCP-1 (NO PMA), p of decrement (12 h, TNF-α vs Lev 2.3 mM) | MIP-1β (NO PMA), p of decrement (12 h, TNF-α vs Lev 2.3 mM) | VEGF (NO PMA), p of decrement (12 h, TNF-α vs Lev 2.3 mM) | Fractalkine (NO PMA), p of decrement [5] | G-CSF (NO PMA), p of decrement [5] | GM-CSF (NO PMA), p of decrement [5] | IL-1α (NO PMA), p of decrement [5] | IL-1β (NO PMA), p of decrement [5] | IL-5 (NO PMA), p of decrement [5] | IL-7 (NO PMA), p of decrement [5] | IL-10 (NO PMA), p of decrement [5] | IP-10 (NO PMA), p of decrement [5] | MIP-1β (NO PMA), p of decrement [5] | TGF-α (NO PMA), p of decrement [5] | Fractalkine (NO PMA), p of decrement [6] | G-CSF (NO PMA), p of decrement [6] | GM-CSF (NO PMA), p of decrement [6] | IL-1α (NO PMA), p of decrement [6] | IL-1β (NO PMA), p of decrement [6] | IL-5 (NO PMA), p of decrement [6] | IL-7 (NO PMA), p of decrement [6]
concentration dependent increase of: MIP-1α (NO PMA), change of secretion (12 h, TNF-α vs Lev 0.1-2.3 mM)
